Experimental data from ChEMBL document CHEMBL4831530, “Exploring Marine-Derived Ascochlorins as Novel Human Dihydroorotate Dehydrogenase Inhibitors for Treatment of Triple-Negative Breast Cancer” (J Med Chem, 2021).
pIC50: −log10 of the molar value. The source made the active and inactive calls. No cut-off for these calls is given here.

What was measured:
MDA-MB-231 = experiment: Cytotoxicity against human MDA-MB-231 cells assessed as reduction in cell viability incubated for 24 hrs by CellTiter-Glo luminescent assay; type: functional, cell-based
MDA-MB-468 = experiment: Cytotoxicity against human MDA-MB-468 cells assessed as reduction in cell viability incubated for 24 hrs by CellTiter-Glo luminescent assay; type: functional, cell-based
[1] = molecular target: Dihydroorotate dehydrogenase (quinone), mitochondrial (Homo sapiens, UniProt Q02127); experiment: Inhibition of recombinant N-terminal His-tagged human DHODH (31 to 395 residues) expressed in Escherichia coli using DL-dihydroorotic acid as substrate and Q0 as coenzyme by DCIP based assay
[2] = Toxicity in NOD/SCID mouse xenografted with patient-derived breast cancer cells assessed as body weight loss at 2.5 to 10 mg/kg, ip administered 5 times a week and measured after 16 days; type: organism-based; conditions: in vivo, 384 h, dose 2.5-10 mg/kg, time 16 day
[3] = Toxicity in NOD/SCID mouse xenografted with patient-derived breast cancer cells assessed as liver injury at 2.5 to 10 mg/kg, ip administered 5 times a week and measured after 16 days by hematoxylin and eosin staining based analysis; type: organism-based; conditions: in vivo, 384 h, dose 2.5-10 mg/kg, time 16 day
Breast cancer cell line = experiment: Antitumor activity against patient-derived breast cancer cells xenografted in NOD/SCID mouse assessed as tumor growth suppression at 20 mg/kg, ip administered every 2 days and measured after 21 days; type: functional, organism-based; conditions: Homo sapiens, time 21.0 day

Chain of Dihydroorotate dehydrogenase (quinone), mitochondrial (Q02127 whole entry, the tested form may be a part): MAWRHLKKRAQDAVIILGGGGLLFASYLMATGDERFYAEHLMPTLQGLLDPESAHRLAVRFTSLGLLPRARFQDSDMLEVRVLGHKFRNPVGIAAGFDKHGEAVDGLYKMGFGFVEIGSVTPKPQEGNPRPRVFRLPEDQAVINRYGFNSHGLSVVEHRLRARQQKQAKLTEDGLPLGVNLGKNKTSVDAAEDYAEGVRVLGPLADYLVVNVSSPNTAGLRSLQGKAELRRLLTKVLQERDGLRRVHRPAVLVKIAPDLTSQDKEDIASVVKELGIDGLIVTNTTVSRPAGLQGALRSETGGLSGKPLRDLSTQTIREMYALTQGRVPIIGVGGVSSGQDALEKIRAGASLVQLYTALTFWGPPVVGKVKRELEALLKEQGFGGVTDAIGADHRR

Row | SMILES | pIC50 (MDA-MB-231; Homo sapiens, MDA-MB-231, 24 h) | pIC50 (MDA-MB-468; Homo sapiens, MDA-MB-468, 24 h) | pIC50 [1] | pIC50 (MDA-MB-231; mda-mb-231) | pIC50 (MDA-MB-468; mda-mb-468) | Activity [2] | Activity [3] | inhibition (Breast cancer cell line)
1 | Cc1c(Cl)c2c(c(O)c1C=O)C[C@H]([C@@](C)(O)/C=C/[C@@]1(C)[C@H](C)CCC(=O)[C@@H]1C)O2 | 4.60 | 4.59 | < 4.22 |  |  |  |  | 
2 | CC(/C=C/[C@@]1(C)[C@H](C)CCC(=O)[C@@H]1C)=C\Cc1c(O)c(Cl)c(C)c(C=O)c1O [ASCOCHLORIN] | 5.66 | 5.96 | 5.89 |  |  |  |  | 
3 | C/C(=C\Cc1c(O)cc(C)c(C=O)c1O)CC/C=C(\C)CCC(=O)C(C)(C)O | < 4.22 | 4.24 | 5.10 |  |  |  |  | 
4 | C=C1CCC(=O)C(C)(C)[C@@H]1CC/C(C)=C/Cc1c(O)c(Cl)c(C)c(C(=O)O)c1O | < 4.22 | < 4.22 | 4.82 |  |  |  |  | 
5 | Cc1c(-c2ccc(-c3ccccc3F)cc2)nc2ccc(F)cc2c1C(=O)O [BREQUINAR] |  |  |  | 6.51 | 7.09 | Toxic | Toxic | 
6 | Cc1c(Cl)c(O)c(C[C@@H]2[C@@]3(C)CC[C@H](O)C(C)(C)[C@@H]3CC[C@@]2(C)O)c(O)c1C=O | < 4.22 | < 4.22 | 4.51 |  |  |  |  | 
7 | O=c1[nH]cc(F)c(=O)[nH]1 [FLUOROURACIL] | 4.82 | < 4.70 |  |  |  |  |  | 
8 | C/C(=C\Cc1c(O)c(Cl)c(C)c(C=O)c1O)CC[C@H]1C(C)(C)C(=O)CC[C@@]1(C)O | < 4.22 | < 4.22 | 4.96 |  |  |  |  | 
9 | C/C(=C\Cc1c(O)c(Cl)c(C)c(C=O)c1O)CC/C=C(\C)CC[C@@H]1OC1(C)C | 4.62 | 4.80 | 5.80 |  |  |  |  | 
10 | C/C(=C\C[C@@]1(C)[C@H](C)CCC(=O)[C@@H]1C)[C@@H](O)Cc1c(O)c(Cl)c(C)c(C=O)c1O | 4.39 | 4.82 | 5.33 |  |  |  |  | 
11 | CC(/C=C/[C@@]1(C)[C@H](C)CC[C@@H](O)[C@@H]1C)=C\Cc1c(O)c(Cl)c(C)c(C=O)c1O | < 4.22 | < 4.22 | 4.89 |  |  |  |  | 
12 | C/C(O)=C(\C#N)C(=O)Nc1ccc(C(F)(F)F)cc1 [TERIFLUNOMIDE] | 4.85 | < 4.70 |  |  |  |  |  | Active
13 | C/C(=C\Cc1c(O)c(Cl)c(C)c(C=O)c1O)CC/C(C)=C(\C)C(C)CCCO (configuration not stated) | 4.92 | 5.12 | 4.49 |  |  |  |  | 
14 | CC(/C=C/[C@@]1(C)[C@H](C)CCC(=O)[C@@H]1C)=C\Cc1c(O)cc(C)c(C=O)c1O | < 4.22 | 4.42 | 4.38 |  |  |  |  | 
